How the values were obtained:
[1] = Tolerance in animals, subacute and chronic; assay type: in vivo; conditions: up to 6 months administration to animals, quantities greater than those recommended for human beings
Text: For these substances, and particularly for CR 604, tolerance tests were made, subacute and chronic, by up to 6 months administration to the animals.

[2] = Irritant and ulceroid (gastrolesive) activity on the gastric mucosa; conditions: rat, in vivo, po
Method: 4. Irritant and ulceroid activity on the gastric mucosa
The experimental evaluation of this activity was made on rats, by the method here reported:
The compound is administered orally to rats which have fasted for 12 hours, the animals being killed 4 hours after the administration.
Regarded as positive, i.e. with stomach damage, are those animals which have at least one haemorrhage point on the stomach wall.
By ED50 there is meant that dose of the drug which can […] in 50% of the animals treated, the formation of these haemorrhages.
In Table 6 there are compared CR 604 and Indometacin, since the latter is, amongst them all, the nearest to the anti-inflammatory activity values of CR 604.

[3] = Osteolathyrism in the rabbit (aminoacetonitrile); assay type: in vivo; conditions: rabbit
Method: B. Tests in vivo: Osteolathyrism in the rabbit.
Osteolathrism consists of inducing into young rabbits a dystrophy of the bone joint system, administering every day aminoacetonitrile by i.p. means, in the quantity of 100 mg/kg of body weight. With this treatment, in about 30 days, the following changes are shown in the rabbit:
Loss of weight (related to the checks physiologically treated), ptosis of the auricular pavilion, loss of fur, deformation of the front and rear limbs, deterioration of the general condition.
All this takes place because the aminoacetonitrile is a collagen tissue poison which changes the biochemical composition of the joint cartilages and the bones.
An evaluation of the therapeutic activity can be made either by biochemical evaluation, i.e. by measuring the quantity of aminosugars in these tissues, or by considering only the general symptoms, which are proportional to the diminution of the aminosugars.
In Table 5 this latter evaluation is reported, in which every symptom was evaluated by allotting it a number from 0 to 4, 4 indicating the maximum amount of damage and 0 indicating no damage.
On Table 5 there are given the results of treatment evaluated on the 25th day, comparing the groups treated only with a physiological solution, only with aminoacetonitrile, with aminoacetonitrile and CR 604, with aminoacetonitrile and Indometacin in the prescribed doses.
Each group consisted of 8 animals.

uropepsinogene = assay type: in vivo, human; conditions: in vivo
Method: (§1) Thus for example comparing CR 604 administered in capsules of 75 mg (6 per day), with Indometacin in capsules of 25 mg (6 per day), i.e. in approximately equimolecular doses on a group of 60 subjects treated (30 with CR 604 and 30 with Indometacin, one notes that (see Table 7):
Gastric secretion of pepsin is increased by agents which irritate and damage the gastric mucosa.

fibroblast culture = test: Production of mucopolysaccharides from fibroblast culture in vitro; assay type: cell-based; conditions: in vitro culture of collagen tissue
Method: a. Tests in vitro: These tests consist of the cultivation in vitro, i.e., outside the organism, of tissue of the same embriological origin in relation to the osteoarticular. Upon the growth of this tissue there is then measured the activities of the various drugs. The units of measurement of these activities is the production of glucosaminoglicanes (mucopolysaccharides measured by the turbidimetric method).
The compounds which form the subject of this invention were evaluated according to this test and compared with known anti-inflammatories.

[4] = Pellets-induced granuloma test (cotton pellets); assay type: in vivo, rat; conditions: rat
Method: 1b. Pellets-induced granuloma test:
Another important test for the evaluation of an anti-inflammatory is that of cotton pellets. This consists of planting a sterile cotton pellet under the rat's back skin.
This pellet is left in situ for a week while the animals are treated daily with various doses of the drug being examined. Evaluation is effected by weighing the pellets taken at the given time and dried, comparing the weight of those of the treated animals with the checks.

urinary calcium = assay type: in vivo, human; conditions: in vivo
Method: as §1
c. […] Excretion of calcium is related to the destruction of the fibrils of the proteic bone matrix which thus also loses the calcium deposited upon it.
The administration of known anti-inflammatories brings about the lysis of these fibrils with loss of calcium.

In the case of `CCCN(CCC)C(=O)C(CCC(=O)OCCCN1CCN(CCOC(=O)Cc2c(C)n(C(=O)c3ccc(Cl)cc3)c3ccc(OC)cc23)CC1)NC(=O)c1ccccc1` (racemic) [CR 604, N'-2-[1-(p-chlorobenzoyl)-5-methoxy-2-methyl-3-indoleacetoxy]ethyl-N-3-(N-benzoyl-N', N'-di-n-propyl-DL-isoglutaminoyl)-oxypropyl-piperazine], the “tolerance, subacute and chronic” value [1] is reported as “well tolerated without any special anatomical or functional lesion”, the “gastrolesive dose, in words” value [2] is reported as “so high as to be of no practical importance, being roughly equal to a fatal dose” and the “effect on aminoacetonitrile symptoms, in words” value [3] is reported as “greatly modifies these toxic symptoms”. For the same compound, the “uropepsinogene in urine, in words” value (uropepsinogene) was “diminishes in the urine”, the “effect on growth and production of mucopolysaccharides, in words” value (fibroblast culture) was “does not harm” and the “anti-inflammatory activity (granuloma test), in words” value [4] was “high anti-inflammatory activity”. For the same compound, the “destruction (lysis) of fibrils of proteic bone matrix, in words” value (urinary calcium) was “does not induce this destruction or reduces it” and the “excretion of urinary calcium, in words” value (urinary calcium) was “reduction in the excretion of urinary calcium”.
